Among the data in PubChem BioAssay AID434935 (Broad Institute, 2010) are EC50 values, retold here.

Inconclusive results are not listed. Activity calls are given as the source filed them.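 Rule for the calls: active = EC50 no higher than ten times the top concentration tested; inconclusive = flat fit with growth inhibition between 30% and 70%, or poor fit; inactive = EC50 above ten times the top concentration tested.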 Bounds are passed on as bounds.

This test relates to C. albicans CaCi-8 + fluconazole, Alamar Blue growth, 48 h. The test is described as follows: azole-resistant Candida growth inhibition plus fluconazole, SAR follow-up, CaCi-8 strain, Alamar Blue fluorescence (AID 434935). Background: Alamar Blue is a resazurin reagent that responds to reducing activity.

`O=c1c2cc(Br)ccc2nc(-c2cccc(C(F)(F)F)c2)n1O`: the EC50 is 3100 nM.
In the case of `COc1ccc(-n2nc(C(=O)NCC(=O)N3CCN(c4ccccc4)CC3)c3ccccc3c2=O)c(OC)c1` it was 1160 nM.
For the compound `O=C(Nc1nnc(-c2ccc3c(c2)CCCC3)o1)c1ccc(Cl)cc1Cl`, the EC50 is 152 nM.
For `COc1ccc(-c2nnc(NC(=O)c3ccc(F)cc3)o2)cc1`, the EC50 was 146 nM.
The value for `Cc1ccc(C(=O)c2coc3c2C(=O)C(=O)c2ccccc2-3)cc1` was 226 nM.
As for `Cc1ccc(C(=O)Nc2cccc(-c3cn4ccccc4n3)c2)cc1`, the EC50 is 2780 nM.
In the case of `O=C(Nc1nnc(CCc2ccccc2)s1)c1ccco1`, the EC50 was 3110 nM.
The value for `O=C(NNC1=C(C(=O)C(F)(F)F)CCC1)c1ccc(Cl)cc1` was 6840 nM; that for `COc1cc2c(cc1NC(=O)c1ccco1)CCCC2` was below 100 nM.
The value for `Cc1oc2c(F)c(F)c(F)c(F)c2c1S(=O)(=O)Nc1cccc(C(F)(F)F)c1` was 9310 nM.
The value for `O=C(Nc1nnc(SCc2ccc(Cl)cc2)s1)c1ccc2ccccc2n1` was 771 nM; that for `O=C(Oc1c(Cl)cc(Cl)c2cccnc12)c1cccs1` was 192 nM.
With `CCCC(=O)NC(c1ccc(Cl)cc1)c1ccc2cccnc2c1O` (centres undefined), the EC50 is 607 nM.
The value for `Cc1ccc(/C=C/C(=O)c2ccccc(=O)c2O)cc1C` was > 26000 nM (inactive); that for `O=C(Nc1nc(-c2ccccn2)cs1)c1ccc(Br)s1` was 2360 nM.
Consider `CCCC(=O)NC(c1ccccc1)c1ccc2cccnc2c1O` (centres undefined), for which the EC50 was 1110 nM.
As to `CC(C)N1CCc2c(sc(NC(=O)c3nc4ccccc4s3)c2C(N)=O)C1`, the EC50 is 600 nM.
In the case of `O=C(Nc1sc2c(c1C(=O)c1ccc(Cl)cc1)CCCC2)c1cccnc1` it was 938 nM; in that of `Cc1nc2ccccc2cc1OCc1ccc(F)cc1`, 7270 nM.
In the case of `Cc1ccc(Nc2nc(N)c([N+](=O)[O-])c(N3CCC(C)CC3)n2)cc1C` it was 6150 nM; in that of `Nc1nccnc1C(=O)Nc1nnc(SCc2ccc(Cl)cc2)s1`, 1430 nM.
Take `CCOC(=O)N1C(=O)C2(CCCCC2)N(c2ccc(C)cc2)C1=S`: the EC50 is 1360 nM.
Take `Clc1ccc2c(c1)C(c1cccs1)=NNC(c1cccnc1)=N2`: the EC50 was below 100 nM.
As to `CC(C)COCc1ccc(O)c2ncccc12`, the EC50 was 7460 nM.

The term EC50 denotes the concentration giving half of the maximal effect.
